In ChEMBL document CHEMBL4680350, “Novel penta-1,4-diene-3-one derivatives containing quinazoline and oxime ether fragments: Design, synthesis and bioactivity” (Bioorg Med Chem, 2021):
pIC50: −log10 of the molar value. The source made the active and inactive calls. No cut-off for these calls is given here.

How the values were obtained:
[1] = system: SMMC-7721; assay: Induction of apoptosis in human SMMC-7721 cells assessed as increase in PARP-1 level t 1 to 5 uM incubated for 48 hrs by Western blot analysis; assay type: functional, cell-based; conditions: dose 1-5 µM
[2] = system: SMMC-7721; assay: Induction of apoptosis in human SMMC-7721 cells assessed as decrease in PARP-1 level t 10 to 20 uM incubated for 48 hrs by Western blot analysis; assay type: functional, cell-based; conditions: dose 10-20 µM
[3] = system: SMMC-7721; assay: Induction of apoptosis in human SMMC-7721 cells assessed as increase in caspase 3 level upto 20 uM incubated for 48 hrs by Western blot analysis; assay type: functional, cell-based; conditions: dose microM <=20, time 48.0 hrs
[4] = system: SMMC-7721; assay: Induction of cell cycle arrest in human SMMC-7721 cells assessed as accumulation of cells at G2/M measured after 24 hrs by flow cytometry; assay type: functional, cell-based
[5] = system: SMMC-7721; assay: Induction of apoptosis in human SMMC-7721 cells as late apoptotic cells at 5 uM measured after 48 hrs by annexin V-FITC/PI based flow cytometric analysis relative to control; assay type: functional
[6] = system: SMMC-7721; assay: Induction of apoptosis in human SMMC-7721 cells at 5 uM measured after 48 hrs by annexin V-FITC/PI based flow cytometric analysis relative to control; assay type: functional
[7] = system: SMMC-7721; assay: Induction of apoptosis in human SMMC-7721 cells at 1 uM measured after 48 hrs by annexin V-FITC/PI based flow cytometric analysis relative to control; assay type: functional
[8] = system: SMMC-7721; assay: Antimigratory activity against human SMMC-7721 cells assessed as inhibition of cell migration at 10 uM measured after 12 hrs by cell scratch assay; assay type: functional, cell-based
[9] = system: SMMC-7721; assay: Antimigratory activity against human SMMC-7721 cells assessed as inhibition of cell migration measured after 12 hrs by cell scratch assay; assay type: functional, cell-based
[10] = system: SMMC-7721; assay: Anticancer activity against human SMMC-7721 cells assessed as inhibition of cell proliferation at 1 uM measured after 72 hrs by MTT assay; assay type: functional
[11] = system: SMMC-7721; assay: Anticancer activity against human SMMC-7721 cells assessed as inhibition of cell proliferation at 10 uM measured after 72 hrs by MTT assay; assay type: functional
[12] = system: SMMC-7721; assay: Cytotoxicity against human SMMC-7721 cells assessed as change in cell morphology at 1 uM incubated for 24 hrs; assay type: functional, cell-based
[13] = system: SMMC-7721; assay: Cytotoxicity against human SMMC-7721 cells assessed as change in cell morphology at 10 uM incubated for 48 hrs; assay type: functional, cell-based
[14] = system: SMMC-7721; assay: Anticancer activity against human SMMC-7721 cells assessed as inhibition of cell proliferation measured after 72 hrs by MTT assay; assay type: functional, cell-based; conditions: SMMC-7721, 72 h
[15] = system: SMMC-7721; assay: Induction of cell cycle arrest in human SMMC-7721 cells assessed as accumulation of cells at […] measured after 24 hrs by flow cytometry; assay type: functional, cell-based
[16] = system: SMMC-7721; assay: Induction of apoptosis in human SMMC-7721 cells assessed as increase in PARP-1 level t 1 to 20 uM incubated for 48 hrs by Western blot analysis; assay type: functional, cell-based; conditions: dose 1-20 µM
[17] = system: SMMC-7721; assay: Induction of apoptosis in human SMMC-7721 cells as late apoptotic cells at 20 uM measured after 48 hrs by annexin V-FITC/PI based flow cytometric analysis relative to control; assay type: functional

Cc1cccc(COc2ccc(/C=C/C(/C=C/c3ccccn3)=N/Oc3ncnc4ccccc34)cc2)c1
Activity [1]: Active | Activity [2]: Active | Activity [3]: Active | Activity [4]: Active | Activity [5]: 99.4% | Activity [6]: 99.9% | Activity [7]: 23% | Activity [8]: inactive | Activity [9]: inactive | inhibition at 1 µM [10]: 69.2% | inhibition at 10 µM [11]: 97.5% | Activity [12]: Active | Activity [13]: Active | pIC50 [14]: 6.19

Clc1ccccc1COc1ccccc1/C=C/C(/C=C/c1ccccn1)=N/Oc1ncnc2ccccc12
inhibition at 1 µM [10]: 95.7% | inhibition at 10 µM [11]: 96%

Clc1ccccc1COc1ccc(/C=C/C(/C=C/c2ccccn2)=N/Oc2ncnc3ccccc23)cc1
inhibition at 1 µM [10]: 10.1% | inhibition at 10 µM [11]: 96.9%

Nc1ccn([C@@H]2O[C@H](CO)[C@@H](O)C2(F)F)c(=O)n1 [GEMCITABINE]
inhibition at 1 µM [10]: 38.5% | inhibition at 10 µM [11]: 61.5% | pIC50 [14]: 5.85

Clc1ccc(COc2ccc(/C=C/C(/C=C/c3ccccn3)=N/Oc3ncnc4ccccc34)cc2)c(Cl)c1
inhibition at 10 µM [11]: 89.6%

Clc1ccc(COc2ccccc2/C=C/C(/C=C/c2ccccn2)=N/Oc2ncnc3ccccc23)c(Cl)c1
Activity [3]: Active | Activity [15]: Active | Activity [8]: inactive | Activity [9]: inactive | inhibition at 1 µM [10]: 33.3% | inhibition at 10 µM [11]: 87.5% | Activity [16]: Active | pIC50 [14]: 5.07

Cc1cccc2ncnc(O/N=C(\C=C\c3ccccn3)/C=C/c3ccccc3OCc3ccc(Cl)cc3Cl)c12
inhibition at 1 µM [10]: 90.8% | inhibition at 10 µM [11]: 93.9%

Cc1cccc2ncnc(O/N=C(/C=C/c3ccc(OCc4ccccc4Cl)cc3)\C=C\c3ccccn3)c12
inhibition at 1 µM [10]: 77% | inhibition at 10 µM [11]: 84.7%

Clc1ccc(COc2ccc(/C=C/C(/C=C/c3cccs3)=N/Oc3ncnc4ccccc34)cc2)cc1
inhibition at 1 µM [10]: 89.3% | inhibition at 10 µM [11]: 97.5%

Fc1ccccc1COc1ccc(/C=C/C(/C=C/c2ccccn2)=N/Oc2ncnc3cc(Cl)ccc23)cc1
inhibition at 1 µM [10]: 81.1% | inhibition at 10 µM [11]: 91.2%

Clc1ccc(COc2ccc(/C=C/C(/C=C/c3ccccn3)=N/Oc3ncnc4cc(Cl)ccc34)cc2)c(Cl)c1
inhibition at 10 µM [11]: 23.6%

Clc1ccc2c(O/N=C(\C=C\c3ccccn3)/C=C/c3ccccc3OCc3ccccc3Cl)ncnc2c1
inhibition at 1 µM [10]: 94.8% | inhibition at 10 µM [11]: 94.5%

Clc1ccc(COc2ccccc2/C=C/C(/C=C/c2ccccn2)=N/Oc2ncnc3cc(Cl)ccc23)c(Cl)c1
Activity [3]: Active | Activity [4]: Active | Activity [8]: inactive | Activity [9]: inactive | inhibition at 1 µM [10]: 23.6% | inhibition at 10 µM [11]: 91.8% | pIC50 [14]: 4.98

Clc1ccc(COc2ccc(/C=C/C(/C=C/c3ccccn3)=N/Oc3ncnc4ccccc34)cc2)cc1
inhibition at 1 µM [10]: 91.2% | inhibition at 10 µM [11]: 94.4%

Clc1ccc(COc2ccc(/C=C/C(/C=C/c3ccccn3)=N/Oc3ncnc4cc(Cl)ccc34)cc2)cc1
Activity [3]: Active | Activity [4]: Active | Activity [17]: 88% | Activity [8]: inactive | Activity [9]: inactive | inhibition at 1 µM [10]: 67.4% | inhibition at 10 µM [11]: 88.1% | Activity [12]: Active | Activity [13]: Active | Activity [16]: Active | pIC50 [14]: 6.20

Clc1ccc(COc2ccccc2/C=C/C(/C=C/c2ccccn2)=N/Oc2ncnc3cc(Cl)ccc23)cc1
inhibition at 1 µM [10]: 94% | inhibition at 10 µM [11]: 94.8%

Cc1cccc(COc2ccc(/C=C/C(/C=C/c3ccccn3)=N/Oc3ncnc4cccc(C)c34)cc2)c1
inhibition at 1 µM [10]: 93.4% | inhibition at 10 µM [11]: 97%

Clc1ccc2c(O/N=C(/C=C/c3ccc(OCc4ccccc4Cl)cc3)\C=C\c3ccccn3)ncnc2c1
inhibition at 1 µM [10]: 18.1% | inhibition at 10 µM [11]: 84.7%

Cc1cccc2ncnc(O/N=C(\C=C\c3ccccn3)/C=C/c3ccccc3OCc3ccccc3Cl)c12
inhibition at 1 µM [10]: 86.8% | inhibition at 10 µM [11]: 95.7%

Cc1cccc2ncnc(O/N=C(\C=C\c3ccccn3)/C=C/c3ccccc3OCc3ccc(Cl)cc3)c12
inhibition at 1 µM [10]: 93.4% | inhibition at 10 µM [11]: 94.5%

Cc1cccc(COc2ccc(/C=C/C(/C=C/c3ccccn3)=N/Oc3ncnc4cc(Cl)ccc34)cc2)c1
inhibition at 1 µM [10]: 78.6% | inhibition at 10 µM [11]: 95.6%

Fc1ccccc1COc1ccccc1/C=C/C(/C=C/c1ccccn1)=N/Oc1ncnc2cc(Cl)ccc12
inhibition at 1 µM [10]: 94.2% | inhibition at 10 µM [11]: 94.8% | Activity [12]: Active | Activity [13]: Active
